Test [1] has as its target T1, PDZ protein (GST-PDZ fusion) (Homo sapiens, UniProt O75970).
T1 construct: made in house; host or cells: E. coli (DH5alpha, BL21 or JM109)
The experiment in a line: G' assay (10 uM PL peptide), results of TABLE 7 and TABLE 12. The test is classed as binding. In short, it runs like this:
(§1)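 Biotinylated PL peptides at 10 uM (vs 20 uM in G^0 assay) bound to GST-PDZ fusions; PDZ protein at 5 ug/ml unless another concentration listed. Bound peptide read as A450 nm, classified 0–5 (0 = A450 0; 5 = A450 >4 repeated).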

Test [2] has as its target T2, PDZ protein (GST-PDZ fusion) (Homo sapiens, UniProt Q5TCQ9).
T2 construct: made in house; host or cells: E. coli (DH5alpha, BL21 or JM109)
T2 sequence (Q5TCQ9 1-1481): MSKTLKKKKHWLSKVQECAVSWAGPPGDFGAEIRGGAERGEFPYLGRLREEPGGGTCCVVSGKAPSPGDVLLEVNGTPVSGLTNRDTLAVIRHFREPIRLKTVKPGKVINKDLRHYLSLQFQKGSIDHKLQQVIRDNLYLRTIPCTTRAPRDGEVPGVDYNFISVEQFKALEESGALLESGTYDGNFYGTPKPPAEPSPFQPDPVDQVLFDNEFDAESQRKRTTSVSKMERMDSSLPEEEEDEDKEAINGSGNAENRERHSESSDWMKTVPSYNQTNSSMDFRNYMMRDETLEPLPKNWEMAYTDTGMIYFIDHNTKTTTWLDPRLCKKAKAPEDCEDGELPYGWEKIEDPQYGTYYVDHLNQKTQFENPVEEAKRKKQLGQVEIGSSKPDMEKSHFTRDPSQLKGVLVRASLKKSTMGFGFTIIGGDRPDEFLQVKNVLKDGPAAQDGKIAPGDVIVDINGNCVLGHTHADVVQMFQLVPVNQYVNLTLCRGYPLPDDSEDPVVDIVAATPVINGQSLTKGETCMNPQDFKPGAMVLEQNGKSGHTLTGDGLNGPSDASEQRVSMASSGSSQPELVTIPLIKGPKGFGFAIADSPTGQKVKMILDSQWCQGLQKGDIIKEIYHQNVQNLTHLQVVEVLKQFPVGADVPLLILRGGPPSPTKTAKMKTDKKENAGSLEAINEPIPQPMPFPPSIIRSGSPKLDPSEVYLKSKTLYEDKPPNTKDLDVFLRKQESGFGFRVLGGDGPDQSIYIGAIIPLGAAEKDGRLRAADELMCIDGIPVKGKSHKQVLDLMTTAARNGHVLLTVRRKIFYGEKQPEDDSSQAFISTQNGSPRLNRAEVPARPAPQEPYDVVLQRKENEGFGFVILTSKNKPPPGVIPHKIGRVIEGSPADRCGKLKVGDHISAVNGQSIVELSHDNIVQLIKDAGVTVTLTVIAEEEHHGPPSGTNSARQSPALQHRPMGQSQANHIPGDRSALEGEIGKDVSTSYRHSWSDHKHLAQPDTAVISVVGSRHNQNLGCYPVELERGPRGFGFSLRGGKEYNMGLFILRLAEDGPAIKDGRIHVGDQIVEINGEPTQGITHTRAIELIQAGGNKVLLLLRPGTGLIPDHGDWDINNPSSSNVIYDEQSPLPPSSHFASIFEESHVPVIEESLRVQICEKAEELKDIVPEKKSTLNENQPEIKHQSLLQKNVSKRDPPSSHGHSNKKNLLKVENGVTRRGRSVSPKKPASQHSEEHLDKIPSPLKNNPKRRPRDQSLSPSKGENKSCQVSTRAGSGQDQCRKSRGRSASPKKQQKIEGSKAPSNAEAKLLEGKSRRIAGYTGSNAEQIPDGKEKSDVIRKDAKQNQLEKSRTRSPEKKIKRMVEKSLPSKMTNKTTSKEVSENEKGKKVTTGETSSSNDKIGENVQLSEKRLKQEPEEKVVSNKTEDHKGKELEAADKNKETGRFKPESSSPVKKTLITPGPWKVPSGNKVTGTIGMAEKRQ
Described as above. The test is classed as binding. Summed up: as §1

Ends that are not written are not given here. Peptide text beside a SMILES is read from it. * marks the point of attachment. Biotin = O=C1N[C@H]2[C@H](CS[C@H]2CCCCC(=O)*)N1

T1 sequence (O75970 whole entry, the tested form may be a part): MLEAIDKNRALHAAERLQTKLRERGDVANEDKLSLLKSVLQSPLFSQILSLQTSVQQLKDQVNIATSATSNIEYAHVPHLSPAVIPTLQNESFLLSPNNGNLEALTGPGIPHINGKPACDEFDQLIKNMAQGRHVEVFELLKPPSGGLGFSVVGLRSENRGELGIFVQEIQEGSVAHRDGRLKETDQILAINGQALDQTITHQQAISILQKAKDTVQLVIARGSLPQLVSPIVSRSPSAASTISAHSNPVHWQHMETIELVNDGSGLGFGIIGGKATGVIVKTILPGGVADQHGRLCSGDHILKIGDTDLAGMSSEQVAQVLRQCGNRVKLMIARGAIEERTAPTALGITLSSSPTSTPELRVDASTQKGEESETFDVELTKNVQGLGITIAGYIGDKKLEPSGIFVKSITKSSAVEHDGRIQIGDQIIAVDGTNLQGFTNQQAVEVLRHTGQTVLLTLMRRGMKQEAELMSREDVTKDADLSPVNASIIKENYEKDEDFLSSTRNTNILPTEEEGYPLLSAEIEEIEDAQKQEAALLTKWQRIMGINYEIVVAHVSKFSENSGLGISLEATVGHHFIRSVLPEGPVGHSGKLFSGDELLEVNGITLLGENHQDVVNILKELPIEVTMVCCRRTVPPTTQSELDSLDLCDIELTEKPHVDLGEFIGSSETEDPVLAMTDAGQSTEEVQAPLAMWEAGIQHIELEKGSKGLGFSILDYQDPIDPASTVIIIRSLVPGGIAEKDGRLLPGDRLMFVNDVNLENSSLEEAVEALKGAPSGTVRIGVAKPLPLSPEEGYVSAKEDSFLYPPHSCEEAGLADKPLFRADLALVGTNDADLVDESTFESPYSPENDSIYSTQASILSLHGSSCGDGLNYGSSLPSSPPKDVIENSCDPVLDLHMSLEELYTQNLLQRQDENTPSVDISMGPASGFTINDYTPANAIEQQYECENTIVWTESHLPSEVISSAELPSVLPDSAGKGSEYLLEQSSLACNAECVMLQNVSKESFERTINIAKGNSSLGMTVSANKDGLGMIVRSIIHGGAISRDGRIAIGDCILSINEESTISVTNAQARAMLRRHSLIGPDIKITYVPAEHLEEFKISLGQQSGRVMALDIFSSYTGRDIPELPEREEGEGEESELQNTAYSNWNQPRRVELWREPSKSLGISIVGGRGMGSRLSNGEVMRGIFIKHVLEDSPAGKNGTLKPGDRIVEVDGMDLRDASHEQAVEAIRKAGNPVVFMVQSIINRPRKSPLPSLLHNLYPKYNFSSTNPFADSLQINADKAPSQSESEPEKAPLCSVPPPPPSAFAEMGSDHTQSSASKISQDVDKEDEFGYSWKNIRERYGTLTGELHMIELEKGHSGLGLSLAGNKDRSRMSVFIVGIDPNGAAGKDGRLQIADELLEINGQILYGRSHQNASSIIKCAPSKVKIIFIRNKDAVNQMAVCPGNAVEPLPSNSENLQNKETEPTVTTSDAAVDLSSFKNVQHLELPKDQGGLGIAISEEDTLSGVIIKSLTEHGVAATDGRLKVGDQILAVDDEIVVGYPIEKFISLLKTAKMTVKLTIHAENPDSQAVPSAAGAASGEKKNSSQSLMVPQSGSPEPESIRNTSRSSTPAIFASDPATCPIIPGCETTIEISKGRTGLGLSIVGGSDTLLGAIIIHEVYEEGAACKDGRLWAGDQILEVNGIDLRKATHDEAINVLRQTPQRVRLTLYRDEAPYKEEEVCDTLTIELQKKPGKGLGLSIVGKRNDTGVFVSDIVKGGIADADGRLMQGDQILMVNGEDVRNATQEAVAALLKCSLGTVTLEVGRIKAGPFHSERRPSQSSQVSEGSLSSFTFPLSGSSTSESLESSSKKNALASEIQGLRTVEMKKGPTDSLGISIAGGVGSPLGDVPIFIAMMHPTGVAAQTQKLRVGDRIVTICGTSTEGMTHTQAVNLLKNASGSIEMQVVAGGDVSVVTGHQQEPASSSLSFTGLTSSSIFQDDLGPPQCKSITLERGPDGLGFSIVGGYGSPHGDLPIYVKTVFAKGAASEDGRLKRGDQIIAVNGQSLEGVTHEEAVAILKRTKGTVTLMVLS

As to TQGFPGPATWRRISSLESEV, the Classification is reported as 1 (A450 nm 0-1) in test [1] (PDZ MUPP-1, PDZ Domain 5); 1 (A450 nm 0-1) in test [1] (PDZ MUPP-1, PDZ Domain 10); 5 (A450 nm of 4 more than 2× repeated) in test [1] (PDZ MUPP-1, PDZ Domain 13); 5 (A450 nm of 4 more than 2× repeated) in test [2] (PDZ KIAA1634, PDZ Domain 1); 3 (A450 nm 2-3) in test [2] (PDZ KIAA1634, PDZ Domain 2); 1 (A450 nm 0-1) in test [2] (PDZ KIAA1634, PDZ Domain 4). The Classification in test [2] (PDZ KIAA1634, PDZ Domain 5) is recorded as 1 (A450 nm 0-1).
Regarding “ISGTPTSTMVHGMTSSSSVV (Biotin-ISGTPTSTMVHGMTSSSSVV) [Clasp-2]”, the Classification is given as 1 (A450 nm 0-1) in test [1] (PDZ MUPP-1, PDZ Domain 10); 1 (A450 nm 0-1) in test [1] (PDZ MUPP-1, PDZ Domain 13); 1 (A450 nm 0-1) in test [2] (PDZ KIAA1634, PDZ Domain 1); 1 (A450 nm 0-1) in test [2] (PDZ KIAA1634, PDZ Domain 2).
`CC(C)C[C@H](NC(=O)[C@H](C)NC(=O)[C@@H](NC(=O)[C@H](CCC(=O)O)NC(=O)[C@H](CCCNC(=N)N)NC(=O)[C@H](CCCNC(=N)N)NC(=O)CNC(=O)[C@H](CCC(N)=O)NC(=O)[C@H](CC(C)C)NC(=O)[C@H](CCCNC(=N)N)NC(=O)CNC(=O)CNC(=O)[C@H](CCCNC(=N)N)NC(=O)[C@H](C)NC(=O)[C@H](CO)NC(=O)[C@H](CCCNC(=N)N)NC(=O)CNC(=O)CNC(=O)[C@H](C)NC(=O)[C@H](C)NC(=O)CCCC[C@@H]1SC[C@@H]2NC(=O)N[C@@H]21)[C@@H](C)O)C(=O)O` [HPV E6 33 (modified)] (Biotin-AAGGRSARGGRLQGRRETAL-OH; C-terminus assumed): the Classification is 2 (A450 nm 1-2) in test [1] (PDZ MUPP-1, PDZ Domain 13) and 5 (A450 nm of 4 more than 2× repeated) in test [2] (PDZ KIAA1634, PDZ Domain 1).
As for `CC(C)C[C@H](NC(=O)CNC(=O)[C@@H](NC(=O)[C@H](CO)NC(=O)[C@H](CC(N)=O)NC(=O)[C@H](Cc1ccccc1)NC(=O)CNC(=O)[C@H](C)NC(=O)[C@H](C)NC(=O)[C@H](Cc1ccccc1)NC(=O)[C@@H](NC(=O)CCCC[C@@H]1SC[C@@H]2NC(=O)N[C@@H]21)[C@@H](C)O)[C@@H](C)O)C(=O)N1CCC[C@H]1C(=O)N[C@@H](Cc1c[nH]cn1)C(=O)N[C@@H](CO)C(=O)N[C@H](C(=O)N[C@H](C(=O)N[C@@H](CCCNC(=N)N)C(=O)N[C@H](C(=O)O)C(C)C)[C@@H](C)O)[C@@H](C)O` [Neuroligin] (Biotin-TFAAGFNSTGLPHSTTRV-OH; C-terminus assumed), the Classification in test [2] (PDZ KIAA1634, PDZ Domain 1) is listed as 4 (A450 nm 3-4); in test [2] (PDZ KIAA1634, PDZ Domain 2) it was 2 (A450 nm 1-2).
As to `CC(C)C[C@H](NC(=O)[C@H](CC(C)C)NC(=O)[C@@H](NC(=O)[C@H](CC(=O)O)NC(=O)CCCC[C@@H]1SC[C@@H]2NC(=O)N[C@@H]21)[C@@H](C)O)C(=O)N[C@@H](CC(C)C)C(=O)N[C@H](C(=O)N[C@@H](CCC(=O)O)C(=O)N[C@@H](CC(N)=O)C(=O)N[C@@H](CCC(=O)O)C(=O)NCC(=O)N[C@@H](CC(=O)O)C(=O)N[C@@H](CCCCN)C(=O)N[C@H](C(=O)N[C@@H](CCC(=O)O)C(=O)N[C@@H](CCC(=O)O)C(=O)N[C@@H](CCC(N)=O)C(=O)N[C@H](C(=O)N[C@@H](CO)C(=O)N[C@@H](Cc1ccc(O)cc1)C(=O)N[C@H](C(=O)O)C(C)C)C(C)C)[C@@H](C)O)[C@@H](C)O` [5H2B_HUMAN] (Biotin-DTLLLTENEGDKTEEQVSYV-OH; C-terminus assumed), the Classification in test [2] (PDZ KIAA1634, PDZ Domain 2) was 5 (A450 nm of 4 more than 2× repeated).
Turning to `CC[C@H](C)[C@H](NC(=O)CNC(=O)[C@H](CO)NC(=O)[C@H](Cc1ccccc1)NC(=O)[C@@H](NC(=O)[C@H](CS)NC(=O)CNC(=O)CNC(=O)[C@H](C)NC(=O)[C@@H]1CCCN1C(=O)[C@@H](NC(=O)[C@@H]1CCCN1C(=O)CCCC[C@@H]1SC[C@@H]2NC(=O)N[C@@H]21)[C@@H](C)CC)[C@@H](C)O)C(=O)N[C@@H](Cc1ccccc1)C(=O)N1CCC[C@H]1C(=O)N[C@H](C(=O)N[C@@H](CC(C)C)C(=O)N[C@H](C(=O)N[C@@H](CO)C(=O)N1CCC[C@H]1C(=O)N[C@@H](CC(C)C)C(=O)O)[C@@H](C)O)[C@@H](C)O` [KIA 1481] (Biotin-PIPAGGCTFSGIFPTLTSPL-OH; C-terminus assumed), the Classification was 2 (A450 nm 1-2) in test [2] (PDZ KIAA1634, PDZ Domain 1); 1 (A450 nm 0-1) in test [2] (PDZ KIAA1634, PDZ Domain 2); 1 (A450 nm 0-1) in test [2] (PDZ KIAA1634, PDZ Domain 5).
With `CC[C@H](C)[C@H](NC(=O)[C@H](CCC(=O)O)NC(=O)[C@H](CC(N)=O)NC(=O)[C@H](CCCNC(=N)N)NC(=O)[C@H](Cc1ccccc1)NC(=O)[C@H](CC(N)=O)NC(=O)[C@H](CO)NC(=O)[C@H](CC(N)=O)NC(=O)[C@H](CCC(=O)O)NC(=O)[C@H](CO)NC(=O)[C@H](CC(=O)O)NC(=O)[C@H](CO)NC(=O)[C@@H](NC(=O)[C@@H](NC(=O)[C@H](CC(=O)O)NC(=O)[C@H](CCCCN)NC(=O)CCCC[C@@H]1SC[C@@H]2NC(=O)N[C@@H]21)[C@@H](C)CC)[C@@H](C)O)C(=O)N[C@@H](CCC(N)=O)C(=O)N[C@@H](CO)C(=O)N[C@@H](CC(C)C)C(=O)N[C@H](C(=O)O)C(C)C` [CD95] (Biotin-KDITSDSENSNFRNEIQSLV-OH; C-terminus assumed), the Classification was 1 (A450 nm 0-1) in test [2] (PDZ KIAA1634, PDZ Domain 1); 1 (A450 nm 0-1) in test [2] (PDZ KIAA1634, PDZ Domain 2); 1 (A450 nm 0-1) in test [2] (PDZ KIAA1634, PDZ Domain 4).
Regarding “SLKPGTVLPPPPYRHRNTVV (Biotin-SLKPGTVLPPPPYRHRNTVV) [ErbB-4 receptor]”, the Classification in test [2] (PDZ KIAA1634, PDZ Domain 2) was 1 (A450 nm 0-1).
On to `CC[C@H](C)[C@H](NC(=O)[C@H](CCC(=O)O)NC(=O)[C@H](CO)NC(=O)[C@H](CCC(=O)O)NC(=O)[C@H](CCCNC(=N)N)NC(=O)[C@H](CCCNC(=N)N)NC(=O)[C@H](CC(C)C)NC(=O)[C@@H]1CCCN1C(=O)[C@H](CCCNC(=N)N)NC(=O)[C@@H]1CCCN1C(=O)[C@H](CCC(=O)O)NC(=O)[C@H](CC(C)C)NC(=O)[C@@H]1CCCN1C(=O)[C@@H](NC(=O)[C@H](CO)NC(=O)[C@H](C)NC(=O)[C@H](CCC(N)=O)NC(=O)[C@H](CC(N)=O)NC(=O)[C@H](Cc1c[nH]cn1)NC(=O)[C@H](CC(C)C)NC(=O)CCCC[C@@H]1SC[C@@H]2NC(=O)N[C@@H]21)C(C)C)C(=O)O` [Kir2.1 (inwardly rect. K+ channel)] (Biotin-LHNQASVPLEPRPLRRESEI-OH; C-terminus assumed), for which the Classification in test [2] (PDZ KIAA1634, PDZ Domain 1) is given as 1 (A450 nm 0-1).
In the case of “LASKSAEEGKQIPDSLSTDL (Biotin-LASKSAEEGKQIPDSLSTDL) [Dock2]”, in test [2] (PDZ KIAA1634, PDZ Domain 5), the Classification is on record as 1 (A450 nm 0-1).
For “QATSRNGHSARQHVVADTEL (Biotin-QATSRNGHSARQHVVADTEL) [CD34]”, the Classification in test [2] (PDZ KIAA1634, PDZ Domain 5) is reported as 1 (A450 nm 0-1).
In the case of `CC(C)C[C@H](NC(=O)[C@H](Cc1c[nH]c2ccccc12)NC(=O)[C@H](Cc1c[nH]cn1)NC(=O)[C@H](CCCNC(=N)N)NC(=O)[C@H](CC(C)C)NC(=O)[C@@H](NC(=O)[C@H](Cc1ccccc1)NC(=O)[C@H](CCC(N)=O)NC(=O)[C@H](CCCNC(=N)N)NC(=O)[C@@H](NC(=O)[C@H](CCC(=O)O)NC(=O)CNC(=O)[C@H](CCCNC(=N)N)NC(=O)[C@H](CC(=O)O)NC(=O)[C@@H](NC(=O)[C@H](CC(C)C)NC(=O)[C@H](CCC(=O)O)NC(=O)[C@H](CCCNC(=N)N)NC(=O)CCCC[C@@H]1SC[C@@H]2NC(=O)N[C@@H]21)C(C)C)C(C)C)[C@@H](C)O)C(=O)N[C@@H](CCCCN)C(=O)N[C@H](C(=O)O)C(C)C` [Dopamine transporter (Na+-dependent)] (Biotin-RELVDRGEVRQFTLRHWLKV-OH; C-terminus assumed), the Classification in test [2] (PDZ KIAA1634, PDZ Domain 1) is 3 (A450 nm 2-3).

Values taken from US20050282743A1, “Molecular interactions in cells” (Arbor Vita Corporation, priority 2001, published 2005).
